{
  "source": "patent US7468394B1",
  "about": "“Sterile pharmaceutical composition and process for a solution of propofol emulsion having microbial growth retardation” (priority 2003, dated 2008)",
  "source_text": "Propofol has limited water solubility, however it is easy to dissolve in soybean oil. As such, it must be incorporated with a solubilizing agent, surfactants or solvents to generate oil-in-water emulsions. The oil component of the emulsion is contained within a shell of the surfactants (egg lecithin), thus forming a “sunflower” structure, which can be seen in Table 1. Currently marketed propofol products are available as oil-in-water emulsions.",
  "data": [
    {"smiles": "CC(C)c1cccc(C(C)C)c1O", "note": "[propofol, 2,6-Diisopropylphenol]", "values": [
      {"measurement": "partition coefficient of propofol between soybean oil and water", "result": "4,220"}
    ]}
  ]
}
